In patent publication US10071976B2, “Small molecule fatty acid synthase inhibitors” (Sanford Burnham Prebys Medical Discovery Institute, priority 2014, dated 2018):
Values joined by “and” are separate entries in the source; they are usually repeats but may differ in a detail not shown here. Equal values may be shown once.

Legend:
[1] = Chemical stability in 1x PBS; assay type: physicochemical
[2] = Plasma protein binding, human; assay type: in vitro ADME
Excerpt: Plasma protein binding was a measure of a drug's efficiency to bind to the proteins within blood plasma. The less bound a drug is, the more efficiently it can traverse cell membranes or diffuse. […] In contrast, drugs that remain largely unbound in plasma are generally available for distribution to other organs and tissues.

Plasma stability, human = assay type: in vitro ADME
Excerpt: (§1) Plasma stability is a measure of the stability of small molecules and peptides in plasma and is an important parameter, which can strongly influence the in vivo efficacy of a test compound. Drug candidates are exposed to enzymatic processes (proteinases, esterases) in plasma, and they can undergo intramolecular rearrangement or bind irreversibly (covalently) to proteins.

ACOT4 = target: T1, ACOT4 (Homo sapiens, UniProt Q8N9L9); assay: FP-PEG-TAMRA labeling of recombinant ACOT4; assay type: binding; settings: recombinant enzyme, 20 μM final, pH 7.8
T1 sequence (Q8N9L9 1-421): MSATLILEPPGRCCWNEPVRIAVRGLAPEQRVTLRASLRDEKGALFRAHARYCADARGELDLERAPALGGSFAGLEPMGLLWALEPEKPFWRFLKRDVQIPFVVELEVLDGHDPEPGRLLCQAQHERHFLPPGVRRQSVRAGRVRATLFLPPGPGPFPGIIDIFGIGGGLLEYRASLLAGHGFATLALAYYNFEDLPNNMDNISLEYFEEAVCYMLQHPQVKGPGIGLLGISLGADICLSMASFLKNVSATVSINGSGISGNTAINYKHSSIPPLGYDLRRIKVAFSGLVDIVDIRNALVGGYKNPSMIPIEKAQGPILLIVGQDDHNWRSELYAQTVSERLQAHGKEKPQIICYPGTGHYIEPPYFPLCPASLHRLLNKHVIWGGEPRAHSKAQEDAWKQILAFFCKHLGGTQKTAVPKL
Protocol: Additionally, studies were performed to test the selectivity of Compounds 1, 16, 22, and 37 for the FASN thioesterase over its most closely related human homolog, the enzyme called ACOT4 (see FIG. 3). Both proteins were mixed and pretreated with the compound (20 μM final, pH 7.8) before addition of the fluorescent activity probe FP-PEG-TAMRA. Respective fluorescence of the bands was detected on a Hitachi flatbed scanner and a greyscale version used for quantitative analysis using ImageJ. Recombinant forms of each enzyme were incubated with compound 16, compound 1, compound 37, and compound 22. FP-TAMRA was included in this mixture to label the active site of the FASN thioesterase and ACOT4. […] These findings further attest to the high degree of selectivity of compounds 1, 16, 37 and 22 for the FASN thioesterase.

in vitro = settings: human
Plasma stability, mouse = assay type: in vitro ADME
Excerpt: as §1

[3] = Aqueous solubility in 1x PBS, pH 7.4; assay type: physicochemical; settings: pH 7.4, aqueous buffer
[4] = Aqueous solubility in pION's buffer; assay type: physicochemical
[5] = system: other serine hydrolases in the lysate; assay: Competition with activity-based probe FP-PEG-TAMRA in PC-3 whole cell lysate: other serine hydrolases; assay type: binding, human; settings: PC-3 lysate, 20 μM final, pH 7.8
Protocol: (§2) Studies were conducted to determine the selectivity of compound 16 for FASN over other human thioesterases. The ability of the compounds to bind the FASN holoenzyme was tested by assessing their ability to compete for the binding of an activity-based probe that covalently attaches to the active site of the FASN thioesterase. Thioesterases are members of the serine hydrolase family, which also includes a number of other types of enzymes including proteases, dipeptidyl peptidases, epoxide hydrolases, etc. To help assess the selectivity of compound 16, an activity-based probe polyethyleneglycol-6-carboxytetramethyl-rhodamine (FP-PEG-TAMRA) that binds covalently to the catalytic serine of all serine hydrolases was used. These studies were done by assessing the ability of compound 16 to compete for the binding of the activity-based probe in whole cell lysates. Several analogs of compound 16 were tested in this assay using lysates of the prostate tumor line (PC3), which expresses FASN, along with numerous other serine hydrolases. The PC-3 lysate was incubated with 8 different FASN inhibitors, including compounds 1, 16 and 97. Then the activity-based probe (FP-PEG-TAMRA) was added to each sample to label the serine hydrolases in the lysate.

[6] = Hepatic microsome stability, human; assay type: in vitro ADME
Excerpt: (§3) The microsomal stability assay is commonly used to rank compounds according to their metabolic stability. This assay addresses the pharmacologic question of how long the parent compound will remain circulating in plasma within the body.

[7] = system: prostate cancer PC-3 cells; assay: De novo palmitate synthesis from 13C-glucose in whole cells (GC-MS); assay type: cell-based
Protocol: The ability of compounds to block biosynthesis of palmitate in whole cells (prostate cancer PC-3 cells) was measured by feeding cells isotopically labeled glucose (^13C-glucose) and measuring the incorporation of ^13C into palmitate by GC-MS.
Prostate cancer PC-3 cell were incubated with 20 μM of FASN inhibitors and labeled with [U-13C]-glucose for 24 h, pH 7.8. The incorporation of ^13C into palmitate from labeled glucose was determined by extracting fatty acids and resolving them by GC-MS. The mass distributions for fatty acid methyl esters for C16:0 (palmitate) were corrected for isotope natural abundance, and the corrected isotope patterns were used to calculate the labeling of acetyl-CoA in palmitate based on a binomial probability distribution of the incorporation of labeled acetyl units into the fatty acid chain.

[8] = Hepatic microsome stability, mouse; assay type: in vitro ADME
Excerpt: as §3

FASN = target: T2, FASN (Homo sapiens, UniProt P49327); assay: Competition with activity-based probe FP-PEG-TAMRA in PC-3 whole cell lysate: FASN; assay type: binding; settings: PC-3 lysate, 20 μM final, pH 7.8
T2 construct: lysates of the prostate tumor line (PC3), which expresses FASN; endogenous in cells; host or cells: PC-3 prostate tumour cells (whole cell lysate)
T2 sequence (P49327 whole entry): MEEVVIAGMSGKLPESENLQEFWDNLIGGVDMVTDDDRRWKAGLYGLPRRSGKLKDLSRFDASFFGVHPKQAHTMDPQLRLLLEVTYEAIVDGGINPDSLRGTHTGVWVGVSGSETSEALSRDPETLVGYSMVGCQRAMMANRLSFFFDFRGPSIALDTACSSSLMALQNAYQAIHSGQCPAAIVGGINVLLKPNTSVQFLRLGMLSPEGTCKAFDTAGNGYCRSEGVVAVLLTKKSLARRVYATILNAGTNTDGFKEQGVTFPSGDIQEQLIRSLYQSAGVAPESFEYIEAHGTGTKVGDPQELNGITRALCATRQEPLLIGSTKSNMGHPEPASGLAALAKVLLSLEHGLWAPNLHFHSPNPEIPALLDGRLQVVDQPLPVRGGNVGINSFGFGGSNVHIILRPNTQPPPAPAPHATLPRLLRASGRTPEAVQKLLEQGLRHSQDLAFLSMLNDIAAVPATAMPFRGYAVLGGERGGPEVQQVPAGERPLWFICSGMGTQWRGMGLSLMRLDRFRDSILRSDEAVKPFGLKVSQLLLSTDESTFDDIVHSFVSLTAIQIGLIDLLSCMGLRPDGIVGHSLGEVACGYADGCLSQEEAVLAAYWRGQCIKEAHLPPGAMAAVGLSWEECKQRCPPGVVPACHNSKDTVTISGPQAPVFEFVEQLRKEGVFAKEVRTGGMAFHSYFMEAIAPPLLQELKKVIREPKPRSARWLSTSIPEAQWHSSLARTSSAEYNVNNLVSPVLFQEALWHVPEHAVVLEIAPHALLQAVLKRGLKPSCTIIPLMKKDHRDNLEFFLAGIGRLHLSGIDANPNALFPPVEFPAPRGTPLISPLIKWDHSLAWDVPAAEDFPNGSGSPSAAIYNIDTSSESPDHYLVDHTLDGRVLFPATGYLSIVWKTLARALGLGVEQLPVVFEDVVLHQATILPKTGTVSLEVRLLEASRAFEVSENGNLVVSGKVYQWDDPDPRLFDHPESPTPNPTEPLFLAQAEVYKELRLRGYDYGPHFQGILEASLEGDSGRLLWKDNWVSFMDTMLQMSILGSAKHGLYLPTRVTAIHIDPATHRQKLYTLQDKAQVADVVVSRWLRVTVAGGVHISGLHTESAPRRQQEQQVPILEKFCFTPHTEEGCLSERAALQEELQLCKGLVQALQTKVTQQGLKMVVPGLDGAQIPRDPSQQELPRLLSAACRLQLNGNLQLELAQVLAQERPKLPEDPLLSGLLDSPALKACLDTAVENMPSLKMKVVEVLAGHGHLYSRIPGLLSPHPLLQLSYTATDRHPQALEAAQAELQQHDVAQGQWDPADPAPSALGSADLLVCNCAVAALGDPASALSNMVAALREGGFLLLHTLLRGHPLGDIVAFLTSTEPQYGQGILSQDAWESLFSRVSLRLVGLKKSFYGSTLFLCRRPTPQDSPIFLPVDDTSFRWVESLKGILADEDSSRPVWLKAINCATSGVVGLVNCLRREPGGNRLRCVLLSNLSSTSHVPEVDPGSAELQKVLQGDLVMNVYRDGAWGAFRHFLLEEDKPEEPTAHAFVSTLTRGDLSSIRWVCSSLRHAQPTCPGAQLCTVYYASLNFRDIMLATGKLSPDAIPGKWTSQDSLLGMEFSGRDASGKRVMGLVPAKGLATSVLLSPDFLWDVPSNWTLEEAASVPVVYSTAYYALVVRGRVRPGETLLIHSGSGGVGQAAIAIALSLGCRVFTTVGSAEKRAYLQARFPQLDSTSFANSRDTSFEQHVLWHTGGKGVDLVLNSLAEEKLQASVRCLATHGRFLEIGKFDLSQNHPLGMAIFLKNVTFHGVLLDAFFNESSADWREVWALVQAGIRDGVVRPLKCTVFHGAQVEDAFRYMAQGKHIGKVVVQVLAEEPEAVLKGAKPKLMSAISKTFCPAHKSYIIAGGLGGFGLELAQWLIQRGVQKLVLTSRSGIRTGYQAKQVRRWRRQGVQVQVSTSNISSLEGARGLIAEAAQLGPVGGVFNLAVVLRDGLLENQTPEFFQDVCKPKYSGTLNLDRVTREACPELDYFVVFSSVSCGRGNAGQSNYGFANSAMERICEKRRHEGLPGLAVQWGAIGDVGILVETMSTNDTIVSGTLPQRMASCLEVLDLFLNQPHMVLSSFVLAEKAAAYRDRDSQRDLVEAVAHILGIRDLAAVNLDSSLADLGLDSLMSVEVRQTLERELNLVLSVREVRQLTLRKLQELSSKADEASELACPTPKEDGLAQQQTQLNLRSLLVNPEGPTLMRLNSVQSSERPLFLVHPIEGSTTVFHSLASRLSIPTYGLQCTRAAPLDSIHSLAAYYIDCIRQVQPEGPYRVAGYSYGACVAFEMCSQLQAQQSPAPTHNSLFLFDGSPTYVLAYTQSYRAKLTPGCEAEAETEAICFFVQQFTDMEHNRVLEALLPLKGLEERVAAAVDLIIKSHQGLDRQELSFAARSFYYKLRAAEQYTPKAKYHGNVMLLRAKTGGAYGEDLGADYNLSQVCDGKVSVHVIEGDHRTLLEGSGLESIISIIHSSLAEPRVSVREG
Protocol: as §2

With CCC(CC)C(=O)Nc1nc(-c2ccc(S(=O)(=O)N3CCOCC3)cc2)cs1 [Compound 16, 2-Ethyl-N-(4-(4-(morpholinosulfonyl)phenyl)thiazol-2-yl)butanamide] the “Chemical Stability in 1x PBS pH 7.4 (% remaining after 48 hrs)” value ([1]; 1x PBS pH 7.4, 48 hrs) was 100/100%, the “Chemical Stability in 1x PBS pH 7.4 with 50% ACN (% remaining after 48 hrs)” value ([1]; with 50% ACN, 48 hrs) was 100/100% and the fraction unbound at 1 μM ([2]; plasma, Human, 1 μM, read-out: Plasma Protein Binding (% Bound) (converted)) was 0.034. The fraction unbound at 10 μM ([2]; plasma, Human, 10 μM, read-out: Plasma Protein Binding (% Bound) (converted)) was 0.0253, the “plasma protein binding” value ([2]; species not given) was “highly plasma protein bound” and the “Plasma Stability (% Remaining at 3 hrs)” value (Plasma stability, human; Human, 3 hrs) was 100/100%. The “plasma stability” value (Plasma stability, human; human plasma) was “good stability”, the “activity labeling of ACOT4” value (ACOT4) was “without effect” and the CC50 (in vitro) was over 50 µM. For the same molecule, the “Plasma Stability (% Remaining at 3 hrs)” value (Plasma stability, mouse; Mouse, 3 hrs) was 100/100%, the “plasma stability” value (Plasma stability, mouse; mouse plasma) was “good stability” and the solubility [3] was 0.02 µg/mL and 0.05 µM. The solubility ([4]; aqueous buffer, pH 5.0) was 0.19 µg/mL and 0.45 µM, the solubility ([4]; pH 6.2, aqueous buffer) was 0.06 µg/mL and 0.14 µM and the solubility ([4]; pH 7.4, aqueous buffer) was 0.13 µg/mL and 0.31 µM. The “competition for activity based labeling of other serine hydrolases” value [5] was “no competition”, the “Hepatic Microsome Stability (% Remaining at 1 hr)” value ([6]; Human, 1 hr) was 4.93% and the “liver microsome stability” value ([6]; human liver microsomes) was “poor stability”. The “inhibition of palmitate synthesis in whole cells” value [7] was “inhibitory activity”, the “de novo palmitate synthesis/DMSO (%)” value ([7]; 20 μM, [U-13C]-glucose 24 h, pH 7.8, relative to DMSO control) was 50% and the “Hepatic Microsome Stability (% Remaining at 1 hr)” value ([8]; Mouse, 1 hr) was 6.37%. For the same molecule, the “liver microsome stability” value ([8]; mouse liver microsomes) was “poor stability” and the “inhibition of FASN (blocking of FP-TAMRA binding)” value (FASN) was “showed inhibition of FASN”.
